Data published in paper PMC3665828 (PLoS ONE, 2013).
“Also recorded” adds a separate entry of the source. Where two headings read alike, the source gives them in different places. Values belong to the compound of their own block, whether it stands above or below them. Starred links: 1 amine or outer side, 2 acyl side, 3 side chain; linkers in the order of their positions; H or OH if unused. Residues, ends and D or L forms follow the SMILES beside them. No end group written: not given here. CO = O=C([*:1])[*:2]

Legend:
[1] = system: angiotensin-generating proteases of immobilized human plasma proteins; test: Incubation of immobilized human plasma proteins with ANG-1-10 in the presence of protease inhibitors (SRM-MS); assay type: biochemical
Method: The control was incubated with immobilized plasma proteins in the absence of inhibitors. The incubation with immobilized plasma proteins was carried out as described in “Incubation of immobilized plasma proteins”. The incubation was started by addition of ANG-1-10 to a final concentration of 10^−5 M to the immobilized plasma proteins.
The reaction products were analyzed by SRM-MS after 6 h (Figure S6).
Supplementary file pone.0064027.s006.tif: Figure S6 Processing of ANG-1-10 by immobilized human plasma proteases in the presence and abscence of protease inhibitors. […] Right y-axis: AUC of ANG-2-10 and ANG-3-10 after incubation in presence of EDTA. (TIF) Click here for additional data file.

[2] = system: recombinant human aminopeptidase N (APN); test: 0.25 µg recombinant human aminopeptidase N in 100 µl angiotensin solution; conditions: up to 24 h
[3] = target: recombinant human aminopeptidase N (APN) (Homo sapiens, UniProt P15144); test: Incubation of angiotensin peptides with recombinant aminopeptidase N (MALDI-MS); conditions: for Cleavage products generated from the substrate by recombinant aminopeptidase N (APN): substrate 10^−5 M in HPLC-grade water, 0.25 µg recombinant human APN per 100 µl, reaction products detected by MALDI-MS
Method: (§1) At defined incubation times aliquots (10 µl) were taken from the reaction mixtures. Reaction was stopped by addition of formic acid adjusting a final concentration of 0.2% (v/v) formic acid/HPLC-grade water. Samples were analyzed by MALDI-MS (Reflex IV, Bruker) using DHB as matrix.
APN is a protease that is known to cleave ANG-2-8 between the Arg2-Val3 in vitro [22] and in vivo [23], [24]. Thus it is a potential protease for the generation of ANG-3-10.

recombinant human ACE-1 = recombinant human ACE-1 (Homo sapiens, UniProt P12821); test: Incubation of angiotensin peptides with recombinant ACE-1 (MALDI-MS); conditions: peptide 10^−5 M, 0.25 µg recombinant human ACE-1, MALDI-MS after 8 h
Method: as §1
It is known that ACE-1 generates ANG-1-8 by removal of the last two C-terminal amino acids (His9-Leu10) of ANG-1-10. […] The reaction products were analyzed by MALDI-MS (Figure S7).
Supplementary file pone.0064027.s007.tif: Figure S7 Processing of angiotensin peptides by recombinant ACE-1. […] ACE-1 was incubated with A) ANG-1-10, B) ANG-2-10, C) ANG-3-10, D) ANG-4-10, E) ANG-5-10. Reaction products were analyzed by MALDI-MS after an incubation time of 8 h. MALDI-MS-Signals which were assigned as angiotensin peptides are marked by arrows. (TIF) Click here for additional data file.

[4] = system: immobilized human plasma proteins; test: Incubation of angiotensin peptides with immobilized human plasma proteins; assay type: in vitro ADME
Method: For incubation experiments human venous citrate blood (ratio 1∶9, blood to sodium citrate 3,13% (Eifelfango)) was obtained by catheterization from the cubital vein of a healthy volunteer (blood pressure: normal, <120/80 mmHg).
Analysis of the reaction by SRM was performed on a LC-ESI-QQQ-MS system. Exoproteolytic processing of these angiotensin peptides requires the presence of plasma proteases which are able to cognate and cleave the intermediate angiotensin peptides. […] When ANG-5-10 was incubated in presence of human immobilized plasma proteins time the dependent generation of ANG-6-10 was detected. After an incubation period of 8 h nearly no angiotensin peptides were detected in any of the reaction mixtures.
Dry Sepharosebeads® were swollen in 10 ml 0.1 mM hydrochloric acid/ HPLC (high pressure liquid chromatography)-grade water for 30 min on a rotating shaker. Subsequently they were washed repeatedly with HPLC-grade water (Lichrosolve, Merck). Afterwards Sepharosebeads® were equilibrated by multiple washing steps with protein coupling buffer (100 mM NaHCO3, 500 mM NaCl, pH 8,3). For protein immobilization plasma samples with a volume of 40 µl were mixed with coupling buffer in a ratio of 1:6 and mixed with the prepared Sepharosebeads® followed by incubation for 2h on a rotating shaker (room temperature). As a control heat inactivated plasma (boiled for 5 min) was immobilized. A volume of 40 µl swollen Sepharosebeads® was used per sample. After protein immobilization the Sepharosebeads® were washed three times with HPLC-grade water. Free binding sites of the Sepharosebeads® were saturated by incubation with blocking buffer (100 mM NaHCO3,500 mM NaCl, pH 8,3, 1 M Glycine, pH 8,3) for 2h on a rotating shaker (room temperature).

[5] = system: anti ANG-1-10 antibody (rabbit polyclonal); conditions: rabbit polyclonal antibody of the kit; ref Fluorescent EIA Kit, phoenix pharmaceuticals; cited from earlier work
Method: The RP-HPLC plasma peptide fractionations corresponding to the retention times of the synthetic angiotensin peptides were analyzed by an immuno-fluorescence assay that was originally manufactured for the quantification of ANG-1-10.

[6] = system: immobilized rat plasma proteins
Method: (§2) Heparinized (10 IU/ml) mouse and rat blood (200 µl) was obtained from the caudal vein. Plasma was isolated from all blood samples by centrifugation (4–16 K, Sigma) 4000×g for 15 min.
(§3) For the immobilization of plasma proteins CNBr-activated Sepharosebeads® 6MB (GE Healthcare) were used. Protein immobilization was perfomed as described in the product information sheet for CNBr-activated Sepharosebeads® (Sigma Aldrich) except for modifications described in the supporting information part “immobilization of plasma proteins” (Methods S1).
Incubation of immobilized plasma proteins and the control samples (glycine derivatized Sepharosebeads® without immobilized proteins and heat inactivated immobilized plasma proteins for the incubation with ANG-1-10) was started by addition of the individual angiotensin peptides (final concentration of 10^−5 M, solved in HPLC-grade water, Lichrosolve, Merck) to the beads. Incubation was carried out at 37°C on a rotating shaker. The final reaction volume of the samples was 30 µl.
Identification of the reaction products was done by comparison of the m/z values of the peaks in the mass spectra with the theoretical m/z values (Table S2) of possible angiotensin peptide products.
ANG-1-10 (10^−5 M) was incubated with immobilized rat plasma proteins. Reaction products were detected by MALDI-MS after 0 h, 1 h, 3 h and 8 h.

[7] = system: non-immobilized human plasma
Method: From this blood sample an aliquot of 10 ml was saved for the incubation experiments. The rest of the blood sample was immediately mixed with protease inhibitor cocktail (including 2 mM AEBSF, 0.3 µM aprotinin, 130 µM bestatin, 1 mM EDTA, 14 µM E-64 and 1 µM leupeptin (Sigma-Aldrich)) in a ratio of 1∶50.
For incubation of non-immobilized plasma a reaction volume of 200 µl non-immobilized undiluted and diluted plasma (1∶100 in HPLC-grade water) was used per sample. Incubation was started by addition of ANG-1-10 to a final concentration of 10^−5 M. Incubation was carried out at 37°C on a rotating shaker. As a control 200 µl of a 10^−5 M ANG-1-10 solution without plasma was incubated under the same conditions.
The reaction products derived from the incubation of non-immobilized plasma proteins were desalted by solid phase extraction (Hydophilic lipophilic balance (HLB) µElution plate, Waters). The HLB material was equilibrated by three washing steps with 0.2% formic acid/HPLC-grade water by centrifugation of the plate for 1 min with 500×g. Next, the sample was applied to the HLB material and centrifuged for 2 min with 200×g. The flow-through was discarded and unbound molecules were removed by washing the HLB material 3 times with 0.2% formic acid/HPLC-grade water by centrifugation of the plate for 2 min with 500×g. […]

[8] = system: immobilized mouse plasma proteins
Method: as §2, §3
Incubation of immobilized plasma proteins and the control samples (glycine derivatized Sepharosebeads® without immobilized proteins and heat inactivated immobilized plasma proteins for the incubation with ANG-1-10) was started by addition of the individual angiotensin peptides (final concentration of 10^−5 M, solved in HPLC-grade water, Lichrosolve, Merck) to the beads. Incubation was carried out at 37°C on a rotating shaker. […]
To investigate the processing of ANG-1-10 by human plasma proteases we used a mass spectrometry based enzyme screening (MES) system [20]. Therefore immobilized murine and human plasma proteins were incubated with ANG-1-10 and the reaction products were analyzed by mass spectrometry. […]
ANG-1-10 (10^−5 M) was incubated with immobilized mouse plasma proteins. Reaction products were detected by MALDI-MS after 0 h, 3 h, 4 h and 8 h. […]

[9] = system: angiotensin converting enzyme-1 (ACE-1); test: 0.25 µg recombinant human ACE-1 in 100 µl angiotensin solution; conditions: up to 8 h
[10] = immobilized human plasma proteins (CNBr-activated Sepharosebeads); conditions: 37°C, up to 24 h
APN = test: in vitro and in vivo; conditions: cited from earlier work
rat blood = conditions: cited from earlier work
[11] = substrate 10^−5 M, immobilized human plasma proteins, 37°C, SRM-MS (LC-ESI-QQQ-MS) / MALDI-MS
[12] = ANG-1-10 10^−5 M, immobilized human plasma proteins, 200 µM AEBSF, 50 µM antipain, 150 µM bestatin, 10 µM captopril, 100 µM chymostatin, 100 µM EDTA, SRM-MS after 6 h, mean ± SEM, n = 3
[13] = ANG-1-10 10^−5 M, immobilized human plasma proteins, 200 µM AEBSF, 50 µM antipain, 150 µM bestatin, 100 µM EDTA, SRM-MS after 6 h, mean ± SEM, n = 3

recombinant human aminopeptidase N (APN) (Homo sapiens, UniProt P15144), sequence (P15144 whole entry): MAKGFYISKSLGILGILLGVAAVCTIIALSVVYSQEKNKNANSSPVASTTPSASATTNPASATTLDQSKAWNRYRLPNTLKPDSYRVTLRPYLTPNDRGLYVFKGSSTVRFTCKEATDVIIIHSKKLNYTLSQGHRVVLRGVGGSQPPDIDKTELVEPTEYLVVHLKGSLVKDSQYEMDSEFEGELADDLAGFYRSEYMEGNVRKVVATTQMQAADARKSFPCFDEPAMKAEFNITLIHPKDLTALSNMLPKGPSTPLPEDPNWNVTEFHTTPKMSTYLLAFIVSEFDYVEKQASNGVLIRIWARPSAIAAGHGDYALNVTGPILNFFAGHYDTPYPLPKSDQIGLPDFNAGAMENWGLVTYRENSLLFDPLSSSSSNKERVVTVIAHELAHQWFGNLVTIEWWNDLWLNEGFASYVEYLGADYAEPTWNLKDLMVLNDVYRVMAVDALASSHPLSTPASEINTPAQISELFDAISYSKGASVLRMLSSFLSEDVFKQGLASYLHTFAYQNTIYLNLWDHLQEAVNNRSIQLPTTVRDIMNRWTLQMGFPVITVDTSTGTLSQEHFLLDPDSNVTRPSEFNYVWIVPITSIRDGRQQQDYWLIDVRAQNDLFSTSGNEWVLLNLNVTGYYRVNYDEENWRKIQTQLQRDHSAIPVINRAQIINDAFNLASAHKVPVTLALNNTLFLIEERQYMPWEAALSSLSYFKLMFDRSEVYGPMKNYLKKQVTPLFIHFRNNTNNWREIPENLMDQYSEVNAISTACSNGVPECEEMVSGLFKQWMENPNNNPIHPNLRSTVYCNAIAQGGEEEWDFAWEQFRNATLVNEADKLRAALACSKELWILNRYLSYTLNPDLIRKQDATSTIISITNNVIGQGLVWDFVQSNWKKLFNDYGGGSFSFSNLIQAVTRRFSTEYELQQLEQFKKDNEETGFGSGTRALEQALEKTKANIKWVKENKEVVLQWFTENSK
recombinant human ACE-1, sequence (P12821 30-1306): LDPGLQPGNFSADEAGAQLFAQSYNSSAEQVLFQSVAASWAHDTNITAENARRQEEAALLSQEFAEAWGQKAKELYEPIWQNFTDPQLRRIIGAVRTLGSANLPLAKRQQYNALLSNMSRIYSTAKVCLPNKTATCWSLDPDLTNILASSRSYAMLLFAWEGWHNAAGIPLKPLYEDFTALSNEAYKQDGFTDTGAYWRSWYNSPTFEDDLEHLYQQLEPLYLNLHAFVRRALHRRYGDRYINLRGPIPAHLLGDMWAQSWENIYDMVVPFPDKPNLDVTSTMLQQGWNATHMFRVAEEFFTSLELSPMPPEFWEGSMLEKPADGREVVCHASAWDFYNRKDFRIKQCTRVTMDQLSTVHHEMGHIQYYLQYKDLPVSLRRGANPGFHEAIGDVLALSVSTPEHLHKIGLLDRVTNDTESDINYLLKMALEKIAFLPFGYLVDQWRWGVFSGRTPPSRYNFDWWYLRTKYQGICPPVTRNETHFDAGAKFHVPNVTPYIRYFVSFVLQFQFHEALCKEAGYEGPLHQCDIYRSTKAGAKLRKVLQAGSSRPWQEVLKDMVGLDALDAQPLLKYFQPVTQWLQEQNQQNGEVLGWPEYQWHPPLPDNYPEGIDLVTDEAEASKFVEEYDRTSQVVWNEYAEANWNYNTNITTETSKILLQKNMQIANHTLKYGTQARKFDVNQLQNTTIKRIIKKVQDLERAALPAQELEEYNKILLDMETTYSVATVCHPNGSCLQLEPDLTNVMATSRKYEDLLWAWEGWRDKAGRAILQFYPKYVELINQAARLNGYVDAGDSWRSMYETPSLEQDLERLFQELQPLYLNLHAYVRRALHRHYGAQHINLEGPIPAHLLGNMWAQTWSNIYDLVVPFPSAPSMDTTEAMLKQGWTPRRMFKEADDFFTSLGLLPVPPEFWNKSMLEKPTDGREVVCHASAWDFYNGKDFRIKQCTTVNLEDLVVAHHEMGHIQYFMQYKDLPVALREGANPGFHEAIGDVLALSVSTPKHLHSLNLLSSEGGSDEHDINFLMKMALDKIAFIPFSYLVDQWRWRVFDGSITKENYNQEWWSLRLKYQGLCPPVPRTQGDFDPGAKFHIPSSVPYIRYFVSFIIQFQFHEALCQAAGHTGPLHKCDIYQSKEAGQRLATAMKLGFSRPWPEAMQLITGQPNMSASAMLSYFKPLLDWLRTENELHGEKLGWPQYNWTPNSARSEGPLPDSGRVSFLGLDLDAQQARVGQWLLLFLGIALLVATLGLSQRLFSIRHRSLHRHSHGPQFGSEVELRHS

not cleaved [2]: not further degraded by APN within 24 h
Compound: HPFHL

Cleavage products generated from the substrate by recombinant aminopeptidase N (APN) [3]: YIHPFHL; also recorded: HPFHL
Reaction product generated by recombinant ACE-1 (recombinant human ACE-1): ANG-3-8
Reaction products generated from the substrate by immobilized human plasma proteins [4, 11]: ANG-4-10, ANG-5-10 and ANG-6-10
Compound: VYIHPFHL [ANG-3-10]

Cleavage products generated from the substrate by recombinant aminopeptidase N (APN) [3]: HPFHL
Reaction product generated by recombinant ACE-1 (recombinant human ACE-1): ANG-5-8
Reaction products generated from the substrate by immobilized human plasma proteins [4, 11]: ANG-6-10
Compound: IHPFHL [ANG-5-10]

Reaction product generated by recombinant ACE-1 (recombinant human ACE-1): ANG-2-8
Compound: RVYIHPFHL [ANG-2-10]
Cleavage products generated from the substrate by recombinant aminopeptidase N (APN) [3]: VYIHPFHL; also recorded: YIHPFHL; also recorded: IHPFHL; also recorded: HPFHL
Further reaction products detected by MALDI-MS after 8 h of incubation ([4]; substrate 10^−5 M, immobilized human plasma proteins, 37°C, MALDI-MS after 8 h): ANG-2-8 (m/z 931.5), ANG-3-8 (m/z 775.4) and ANG-4-8 (m/z 676.3)
Reaction products generated from the substrate by immobilized human plasma proteins [4, 11]: ANG-3-10, ANG-4-10, ANG-5-10 and ANG-6-10

Only reaction products left after 8 h of incubation, rat plasma [6]: ANG-1-7, ANG-1-8 and ANG-5-10
Only reaction products left after 8 h of incubation, mouse plasma [8]: ANG-1-8
Compound: DRVYIHPFHL [ANG-1-10, angiotensin I]
Reaction products generated from the substrate by immobilized rat plasma proteins [6]: ANG-1-8 (m/z 1046.5), ANG-1-7 (m/z 899.5), ANG-2-10 (m/z 1181.7), ANG-3-10 (m/z 1025.6), ANG-4-10 (m/z 926.5), ANG-5-10 (m/z 763.4)
Reaction products generated from the substrate by non-immobilized human plasma proteins [7]: A-1-9, ANG-1-8, ANG-1-7, ANG-2-10, ANG-3-10, ANG-4-10, ANG-5-10 and ANG-6-10
Reaction products generated from the substrate by immobilized mouse plasma proteins [8]: ANG-1-8 (m/z 1046.5), ANG-1-7 (m/z 899.5), ANG-2-10 (m/z 1181.7), ANG-3-10 (m/z 1025.6), ANG-4-10 (m/z 926.5), ANG-5-10 (m/z 763.4)
Reaction products generated from the substrate by immobilized human plasma proteins [4]: A-1-9, ANG-1-8, ANG-1-7, ANG-2-10, ANG-3-10, ANG-4-10, ANG-5-10 and ANG-6-10

Stability towards APN ([3]; within 24 h of incubation with recombinant APN, MALDI-MS): not further degraded
Reaction product generated by recombinant ACE-1 (recombinant human ACE-1): no cleavage product was observed
Compound: HPFHL [ANG-6-10]

cleaved bond [9]: F8-His9
fragment found [10]: ANG-6-10
fragment found [2]: ANG-6-10
Compound: IHPFHL

cleaved bond [9]: F8-His9
fragment found [10]: ANG-5-10; also recorded: ANG-6-10
Compound: YIHPFHL
fragment found [2]: ANG-5-10, 1 h; also recorded: ANG-6-10, 1 h

cleaved bond [9]: F8-His9
Compound: VYIHPFHL
fragment found [10]: ANG-4-10; also recorded: ANG-5-10; also recorded: ANG-6-10
fragment found [2]: ANG-4-10, 1 h; also recorded: ANG-6-10, 1 h

cleaved bond [9]: F8-His9
Compound: RVYIHPFHL
fragment found [10]: ANG-3-10; also recorded: ANG-4-10; also recorded: ANG-5-10; also recorded: ANG-6-10; also recorded: ANG-2-8, 8 h; also recorded: ANG-3-8, 8 h; also recorded: ANG-4-8, 8 h
fragment found (rat blood): ANG-2-8
fragment found [2]: ANG-3-10, 1 h; also recorded: ANG-4-10, 1 h; also recorded: ANG-5-10, 4 h; also recorded: ANG-6-10, 8 h

Cleavage products generated from the substrate by recombinant aminopeptidase N (APN) [3]: none
Compound: CC[C@H](C)[C@H](NC(=O)[C@H](Cc1ccc(O)cc1)NC(=O)[C@@H](NC(=O)[C@H](CCCNC(=N)N)NC(=O)[C@@H](N)CC(=O)O)C(C)C)C(=O)N[C@@H](Cc1cnc[nH]1)C(=O)N1CCC[C@H]1C(=O)N[C@@H](Cc1ccccc1)C(=O)O [ANG-1-8, angiotensin II]

Further lines, the compound ahead of its results:

Compound: CC(C)C[C@H](NC(=O)[C@@H](NC(=O)N[C@@H](Cc1ccccc1)C(=O)O)[C@@H]1CCN=C(N)N1)C(=O)N[C@H](C=O)Cc1ccccc1 [Chymostatin]
Change of ANG-6-10-generating activity in the presence of inhibitor [1]: 1.30±0.14

Compound: CC(C)C[C@H](NC(=O)[C@@H](O)[C@H](N)Cc1ccccc1)C(=O)O [Bestatin]
Change of ANG-6-10-generating activity in the presence of inhibitor [1, 12]: 0.76±0.14
Change of ANG-3-10-generating activity in the presence of inhibitor [1, 13]: Higher amounts

Compound: C[C@H](CS)C(=O)N1CCC[C@H]1C(=O)O [Captopril]
Change of ANG-6-10-generating activity in the presence of inhibitor [1, 12]: 0.98±0.32

Compound: O=C(O)CN(CCN(CC(=O)O)CC(=O)O)CC(=O)O [EDTA]
Change of ANG-3-10-generating activity in the presence of inhibitor [1, 13]: 3.4±0.8

Compound: RVYIHPF [ANG-2-8, angiotensin peptide also known as AIII]
Cross reactivity with the anti ANG-1-10 antibody [5]: no cross reactivity

Compound: NCCc1ccc(S(=O)(=O)F)cc1 [AEBSF]
Change of ANG-3-10-generating activity in the presence of inhibitor [1, 13]: inhibited

Compound: CC(C)[C@H](NC(=O)[C@H](CCCNC(=N)N)NC(=O)N[C@@H](Cc1ccccc1)C(=O)O)C(=O)N[C@H](C=O)CCCNC(=N)N [Antipain] ({Phe-CO}-Arg-Val-Arg-aldehyde)
Change of ANG-6-10-generating activity in the presence of inhibitor [1]: slightly inhibited
Change of ANG-2-10-generating activity in the presence of inhibitor ([1]; ANG-1-10 10^−5 M, immobilized human plasma proteins, 50 µM antipain, 150 µM bestatin, 100 µM EDTA, SRM-MS after 6 h, mean ± SEM, n = 3): −0.12±0.023
Change of ANG-4-10-generating activity in the presence of inhibitor ([1]; ANG-1-10 10^−5 M, immobilized human plasma proteins, 50 µM antipain, SRM-MS after 6 h, mean ± SEM, n = 3): -0.21±0.05
Change of ANG-3-10-generating activity in the presence of inhibitor [1, 13]: inhibited

Compound: YIHPFHL [ANG-4-10]
Cleavage products generated from the substrate by recombinant aminopeptidase N (APN) [3]: IHPFHL; also recorded: HPFHL
Reaction product generated by recombinant ACE-1 (recombinant human ACE-1): ANG-4-8

Compound: RVYIHPF
cleaved bond (APN): Arg2-Val3
